PubChem BioAssay AID330 (DTP/NCI, 2004)
“And” between values parts separate entries of the source, which are not always exact repeats. Equal entries are not always repeated. Inconclusive results and toxic doses are left out. The calls were made as follows: active = survival T/C of 150% or more; inactive = T/C below 125% in these data.

System: P388 leukemia ip, CD2F1 mice, survival T/C
Experiment: NCI In Vivo Anticancer Drug Screen. Data for tumor model P388 Leukemia (intraperitoneal) in CD2F1 (CDF1) mice
Settings: endpoint: median survival time, higher = longer survival
Summary of the method: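 Mice carrying the transplanted tumor received test compound or vehicle. Survival was recorded in each group, and the value is the treated-group measurement divided by that of the vehicle-treated control group.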

[1] = dose: 100.0 mg/kg/injection, schedule: Q01DX009 (ip), vehicle: saline with Tween-80
[2] = dose: 100.0 mg/kg/injection, schedule: Q04DX003 (ip), vehicle: saline with Tween-80
[3] = dose: 200.0 mg/kg/injection, schedule: Q01DX009 (ip), vehicle: saline with Tween-80
[4] = dose: 200.0 mg/kg/injection, schedule: Q04DX003 (ip), vehicle: saline with Tween-80
[5] = dose: 400.0 mg/kg/injection, schedule: Q04DX003 (ip), vehicle: saline with Tween-80
[6] = dose: 12.5 mg/kg/injection, schedule: Q01DX005 (ip), vehicle: Klucel (hydroxypropylcellulose) (HPC)
[7] = dose: 25.0 mg/kg/injection, schedule: Q01DX005 (ip), vehicle: Klucel (hydroxypropylcellulose) (HPC)
[8] = dose: 100.0 mg/kg/injection, schedule: Q04DX003 (ip), vehicle: Klucel (hydroxypropylcellulose) (HPC)
[9] = dose: 200.0 mg/kg/injection, schedule: Q04DX003 (ip), vehicle: Klucel (hydroxypropylcellulose) (HPC)
[10] = dose: 400.0 mg/kg/injection, schedule: Q04DX003 (ip), vehicle: Klucel (hydroxypropylcellulose) (HPC)
[11] = dose: 6.25 mg/kg/injection, schedule: Q01DX009 (ip), vehicle: Klucel (hydroxypropylcellulose) (HPC)
[12] = dose: 12.5 mg/kg/injection, schedule: Q01DX009 (ip), vehicle: Klucel (hydroxypropylcellulose) (HPC)
[13] = dose: 25.0 mg/kg/injection, schedule: Q01DX009 (ip), vehicle: Klucel (hydroxypropylcellulose) (HPC)
[14] = dose: 50.0 mg/kg/injection, schedule: Q01DX009 (ip), vehicle: Klucel (hydroxypropylcellulose) (HPC)
[15] = dose: 100.0 mg/kg/injection, schedule: Q01DX009 (ip), vehicle: Klucel (hydroxypropylcellulose) (HPC)
[16] = dose: 200.0 mg/kg/injection, schedule: Q01DX009 (ip), vehicle: Klucel (hydroxypropylcellulose) (HPC)
[17] = dose: 12.5 mg/kg/injection, schedule: Q01DX009 (ip), vehicle: saline with Tween-80
[18] = dose: 25.0 mg/kg/injection, schedule: Q01DX009 (ip), vehicle: saline with Tween-80
[19] = dose: 50.0 mg/kg/injection, schedule: Q01DX009 (ip), vehicle: saline with Tween-80
[20] = dose: 50.0 mg/kg/injection, schedule: Q01DX005 (ip), vehicle: saline with Tween-80
[21] = dose: 100.0 mg/kg/injection, schedule: Q01DX005 (ip), vehicle: saline with Tween-80
[22] = dose: 200.0 mg/kg/injection, schedule: Q01DX005 (ip), vehicle: saline with Tween-80

Measured: T/C

COc1cc2c(cc1I)-c1c(cc(OC)c(OC)c1OC)CC[C@@H]2NC(C)=O
inactive: dose: 88.0 mg/kg/injection, schedule: Q01DX009 (ip), vehicle: saline with Tween-80 118 % of control | dose: 100.0 mg/kg/injection, schedule: Q01DX009 (ip), vehicle: saline sonified 95 % of control | [1] 95 % of control | [2] 100 % of control | [3] 100 % of control | [4] 100 % of control | dose: 400.0 mg/kg/injection, schedule: Q01DX009 (ip), vehicle: saline with Tween-80 104 % of control | [5] 90 % of control

CCN(CC)S(=O)(=O)c1ccc(-c2cc(Cl)c3cc(S(=O)(=O)F)ccc3n2)cc1
inactive: [2] 100 % of control | [4] 100 % of control | [5] 95 % of control

O=C(NCCCl)Oc1c(Cl)cc(Cl)cc1Cl
inactive: [6] 106 % of control | [7] 104 % of control

O=[N+]([O-])C(CO)CCC(CO)[N+](=O)[O-] (centres undefined)
inactive: [8] 96 % of control | [9] 98 % of control | [10] 88 % of control

COc1cccc2c1C(=O)c1c(O)c3c(c(O)c1C2=O)CC(O)(C(C)=O)CC3OC1CC(NC(=O)C(F)(F)F)C(OC(=O)c2ccc([N+](=O)[O-])cc2)C(CNC(=O)C(F)(F)F)O1 (centres undefined)
inactive: dose: 3.13 mg/kg/injection, schedule: Q04DX003 (ip), vehicle: distilled water + Tween-80 92 % of control | dose: 6.25 mg/kg/injection, schedule: Q04DX003 (ip), vehicle: distilled water + Tween-80 100 % of control | dose: 12.5 mg/kg/injection, schedule: Q04DX003 (ip), vehicle: distilled water + Tween-80 96 % of control | dose: 25.0 mg/kg/injection, schedule: Q04DX003 (ip), vehicle: distilled water + Tween-80 96 % of control | dose: 50.0 mg/kg/injection, schedule: Q04DX003 (ip), vehicle: distilled water + Tween-80 100 % of control

O=C(CBr)N1c2ccccc2Sc2c1ccc1ccccc21
inactive: [11] 86 % of control | [12] 111 % of control | [13] 117 % of control | [14] 117 % of control | dose: 50.0 mg/kg/injection, schedule: Q04DX003 (ip), vehicle: Klucel (hydroxypropylcellulose) (HPC) 99 % of control and 114 % of control | [15] 120 % of control | [8] 99 % of control and 113 % of control and 120 % of control | [16] 120 % of control | [9] 101 % of control and 120 % of control and 87 % of control | [10] 106 % of control and 123 % of control

CSc1nc2c(=S)[nH]cnc2s1
inactive: dose: 100.0 mg/kg/injection, schedule: Q04DX002 (ip), vehicle: saline with Tween-80 95 % of control | dose: 200.0 mg/kg/injection, schedule: Q04DX002 (ip), vehicle: saline with Tween-80 92 % of control | dose: 400.0 mg/kg/injection, schedule: Q04DX002 (ip), vehicle: saline with Tween-80 92 % of control

CC(=O)C1CC2CN(C(=O)OCC(Cl)(Cl)Cl)C1C=C2c1ccccc1 (centres undefined)
inactive: dose: 100.0 mg/kg/injection, schedule: Q04DX002 (ip), vehicle: saline 91 % of control | dose: 200.0 mg/kg/injection, schedule: Q04DX002 (ip), vehicle: saline 94 % of control | dose: 400.0 mg/kg/injection, schedule: Q04DX002 (ip), vehicle: saline 94 % of control

CCC[CH2][Sn]([CH2]CCC)([O]C=O)[O]C=O
inactive: dose: 0.39 mg/kg/injection, schedule: Q01DX009 (ip), vehicle: saline 99 % of control and 108 % of control | dose: 0.79 mg/kg/injection, schedule: Q01DX009 (ip), vehicle: saline 100 % of control and 92 % of control | dose: 1.56 mg/kg/injection, schedule: Q01DX009 (ip), vehicle: saline 86 % of control and 94 % of control

Cc1cc(NC(=S)SCc2ccc(F)cc2)ccc1Br
inactive: [14] 112 % of control and 122 % of control | dose: 50.0 mg/kg/injection, schedule: Q01DX009 (ip), vehicle: suspension in saline 93 % of control | [15] 114 % of control and 115 % of control | dose: 100.0 mg/kg/injection, schedule: Q01DX009 (ip), vehicle: suspension in saline 94 % of control | dose: 200.0 mg/kg/injection, schedule: Q01DX009 (ip), vehicle: suspension in saline 109 % of control

Cc1cnc(C2OCCO2)c2cccc(N)c12
inactive: [14] 104 % of control | [15] 105 % of control | [16] 112 % of control

COc1cc2c(cc1O)Cc1c-2[n+](C)cc2cc(OC)c(OC)cc12
inactive: dose: 6.25 mg/kg/injection, schedule: Q01DX005 (ip), vehicle: Klucel (hydroxypropylcellulose) (HPC) 117 % of control | [6] 109 % of control | [7] 115 % of control | dose: 100.0 mg/kg/injection, schedule: Q04DX002 (ip), vehicle: Klucel (hydroxypropylcellulose) (HPC) 119 % of control

O=C(O)CCCCCCCCCc1ccccc1
inactive: [17] 100 % of control | [18] 97 % of control | [19] 95 % of control | dose: 50.0 mg/kg/injection, schedule: Q01DX009 (ip), vehicle: saline 97 % of control

CCOC/C=C\C(C)(C)C
inactive: dose: 50.0 mg/kg/injection, schedule: Q01DX001 (ip), vehicle: saline 107 % of control | dose: 100.0 mg/kg/injection, schedule: Q01DX001 (ip), vehicle: saline 107 % of control | dose: 200.0 mg/kg/injection, schedule: Q01DX001 (ip), vehicle: saline 99 % of control

Cc1cc2cc3c(=O)[nH]c(=O)cc-3n(CC(O)C(O)C(O)CO)c2cc1C (centres undefined)
inactive: dose: 12.5 mg/kg/injection, schedule: Q01DX009 (ip), vehicle: other 102 % of control | dose: 25.0 mg/kg/injection, schedule: Q01DX009 (ip), vehicle: other 96 % of control | dose: 50.0 mg/kg/injection, schedule: Q01DX009 (ip), vehicle: other 96 % of control | dose: 100.0 mg/kg/injection, schedule: Q01DX009 (ip), vehicle: other 95 % of control

COc1cc(-c2c(C#N)c(OC)[nH]c(=O)c2C#N)cc(OC)c1OC
inactive: [17] 105 % of control | [18] 102 % of control | [19] 102 % of control and 105 % of control | [1] 96 % of control | [3] 95 % of control

O=[n+]1ccn([O-])c2ccccc21.[Mn].[O-][Cl+3]([O-])([O-])O
inactive: [2] 118 % of control

COC(OC)C(C(=O)c1ccc(OCc2ccccc2)cc1O)c1cc2c(cc1OCc1ccccc1)OCO2 (centres undefined)
inactive: [8] 96 % of control | [9] 101 % of control | [10] 98 % of control

O=c1[nH]ncc2c1Sc1cn[nH]c(=O)c1S2
inactive: [20] 97 % of control | [21] 104 % of control | [22] 100 % of control

CCN(CC)CCCNc1cnc2ccc(OC)cc2n1
inactive: dose: 25.0 mg/kg/injection, schedule: Q04DX003 (ip), vehicle: saline 94 % of control | dose: 50.0 mg/kg/injection, schedule: Q04DX003 (ip), vehicle: saline 91 % of control | dose: 100.0 mg/kg/injection, schedule: Q04DX003 (ip), vehicle: saline 103 % of control

Cc1cc(NS(=O)(=O)c2ccc(N=c3c4ccccc4n(-c4ccccc4)c4ccccc34)cc2)no1
inactive: [20] 103 % of control | [21] 92 % of control | [22] 90 % of control

CSC(=S)Nc1nc2ccc(Cl)cc2s1
inactive: [11] 104 % of control | [12] 111 % of control | [13] 88 % of control

Nc1cc(Cl)c(N(CCO)C2=NCCN2)c(Cl)c1
inactive: [6] 92 % of control | [7] 88 % of control | dose: 50.0 mg/kg/injection, schedule: Q01DX005 (ip), vehicle: Klucel (hydroxypropylcellulose) (HPC) 105 % of control and 89 % of control

CCCCOc1cccc2c1C(=O)c1c(O)c3c(c(O)c1C2=O)C[C@@](O)(C(C)=O)C[C@@H]3OC1CC(N)C(O)C(C)O1 (some centres undefined)
inactive: dose: 3.13 mg/kg/injection, schedule: Q04DX003 (ip), vehicle: water 117 % of control and 120 % of control | dose: 6.25 mg/kg/injection, schedule: Q04DX003 (ip), vehicle: water 113 % of control and 117 % of control | dose: 12.5 mg/kg/injection, schedule: Q04DX003 (ip), vehicle: water 115 % of control | dose: 50.0 mg/kg/injection, schedule: Q04DX003 (ip), vehicle: water 89 % of control and 90 % of control

CCC1(CC)OC(=O)C1Cl (centres undefined)
inactive: [20] 98 % of control | [21] 113 % of control | [22] 118 % of control
